Data as given in US12599676B2, “Cytotoxic imidazo[1,2-A]pyridine compounds and their use in therapy” (MyricX Pharma Limited, priority 2022, dated 2026).
pIC50: −log10 of the molar value.

Columns and labels:
[1] = tested on: RKO (human colon carcinoma); assay: Cell cytotoxicity CellTiter-Glo, RKO; format: cell-based
Method: (§1) Cells were seeded in 96-well microplates and treated with compounds or cisplatin (as a positive control) at 9 increasing concentrations in technical triplicate. […] On day 1, 90 μL of various cell suspensions with the number of cells ranging from 5000-8000 cells/well were seeded into wells of a 96-well plate (Corning). The number of cells to be seeded was previously determined. • 2. All 96-wells plates with cells were placed in an incubator overnight at 37° C. with 5% CO2. • 3. On day 2, cells were observed under a microscope ensuring the cells treated with vehicle control were in good condition. • 4. A dilution series of the test compounds and cisplatin were prepared at 10× the final concentrations required. 10 μL/well of 10× compound solution was added to the corresponding plates. The final volume was 100 μL/well for all the plates. Final DMSO concentration was 0.1%. • 5. On day 5 (after 72 hours of incubation), 50 μL of CTG reagent was added to each well. • 6. Contents were mixed for 5 minutes on an orbital shaker to facilitate cell lysis. • 7. The plate was allowed to incubate at room temperature for 10 minutes to stabilize luminescent signals. […]

[2] = tested on: NCI-H1703 (human lung squamous cell carcinoma); assay: Cell cytotoxicity CellTiter-Glo, NCI-H1703; format: cell-based
Method: as §1

[3] = tested on: DU4475 (human breast carcinoma); assay: Cell cytotoxicity CellTiter-Glo, DU4475; format: cell-based; details: DU-4475
Method: as §1

[4] = Caco-2 cell permeability assay; format: in vitro ADME; details: human, Caco-2, pH 7.4, basal to apical Papp, pH 7.4, 2.5 h
In short: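 Caco-2 monolayers grown 10 days were dosed at 2 μM (1% DMSO) on the donor side in HBSS/10 mM HEPES pH 7.4, for both AB and BA directions, then incubated 2.5 h at 37 °C without shaking. Donor and acceptor samples were quantified by LC-MS/MS to give Papp. Wells that failed a Lucifer Yellow integrity check (>1% passage) were excluded.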

Papp B→A at 2.5 h, 2 μM [4]: 9.1 ×10⁻⁶ cm/s
Compound: Cc1c(CCOc2cc(Cl)ccc2-c2ccc3ncc(CCN)n3c2)c(C(=O)N(C)C)nn1C [Comparator Compound 1, 4-(2-{2-[3-(2-aminoethyl)imidazo[1,2-a]pyridin-6-yl]-5-chlorophenoxy}ethyl)-N,N,1,5-tetramethyl-1H-pyrazole-3-carboxamide, reference compound]
pIC50 [1]: 7.02
pIC50 [2]: 7.09
pIC50 [3]: < 6.00
